For series [1], the system named is MDA-MB-231. In words: Induction of cell cycle arrest in human MDA-MB-231 cells assessed as increase in G2 phase cells at 10 uM incubated for 24 hrs by PI staining based flow cytometric analysis (reference value: 8.95%). Format: functional.
The subject of series [2] is MDA-MB-231. In words: Induction of apoptosis in human MDA-MB-231 cells assessed as reduction in cell volume at 1 uM incubated for 24 hrs by transmission electron microscopic analysis. In kind it is functional, cell-based.
Series [3] concerns MDA-MB-231. In words: Induction of apoptosis in human MDA-MB-231 cells assessed as nuclear chromatin condensation at 1 uM incubated for 24 hrs by transmission electron microscopic analysis. Format: functional, cell-based.
Series [4] deals with MDA-MB-231. Nature of the series: Induction of apoptosis in human MDA-MB-231 cells assessed as increase in catalase level at 100 nM incubated for 48 hrs. In kind it is functional, cell-based.
For series [5], the system named is MDA-MB-231. Nature of the series: Induction of apoptosis in human MDA-MB-231 cells assessed as increase in caspase 3 expression at 1 uM incubated for 24 hrs by Western blot analysis. Format: functional, cell-based.
Series [6] has as its system MDA-MB-231. In words: Induction of apoptosis in human MDA-MB-231 cells assessed as change in membrane osmotic transport capacity. Format: functional, cell-based.
Series [7] has as its system MDA-MB-231. In words: Induction of apoptosis in human MDA-MB-231 cells assessed as decrease in Bcl-2/Bax ratio at 0.5 to 3 times of IC50 concentration by Western blot analysis. In kind it is functional, cell-based.
Series [8] is described as follows: Acute toxicity in mouse assessed as death rate ratio at 600 mg/kg, ip measured over 14 days. Format: organism-based. Particulars: in vivo, 336 h, time 14 day.
Series [9] concerns 4T1. In words: Antitumor activity against mouse 4T1 cells implanted in Balb/c mouse assessed as tumor growth inhibition by measuring T/C ratio at 50 mg/kg administered intratumorally every four days for 14 days in the presence of liquid cyanoacrylate. Particulars: route it(Intratumoral), time 14 day. In kind it is functional.
Series [10] in a line: Toxicity in Balb/c mouse implanted with mouse 4T1 cells assessed as effect on body weight at 50 mg/kg administered intratumorally every four days for 14 days. Format: organism-based. Particulars: in vivo, other, 336 h, route it(Intratumoral), time 14 day.
A short description of series [11]: Toxicity in Balb/c mouse implanted with mouse 4T1 cells assessed as lung lesions at 50 mg/kg, ip administered every two days for 14 days by H&E staining based histopathological analysis. In kind it is organism-based. Particulars: in vivo, 336 h, time 14 day.
Series [12] can be described thus: Toxicity in Balb/c mouse implanted with mouse 4T1 cells assessed as liver lesions at 50 mg/kg administered intratumorally every four days for 14 days by H&E staining based histopathological analysis. In kind it is organism-based. Particulars: in vivo, other, 336 h, route it(Intratumoral), time 14 day.
Series [13] in a line: Toxicity in Balb/c mouse implanted with mouse 4T1 cells assessed as lung lesions at 50 mg/kg administered intratumorally every four days for 14 days by H&E staining based histopathological analysis. Format: organism-based. Particulars: in vivo, other, 336 h, route it(Intratumoral), time 14 day.
Series [14] has as its system 4T1. In words: Antitumor activity aginst mouse 4T1 cells implanted in Balb/c mouse assessed as nuclei shrinkage at 50 mg/kg administered intratumorally every four days for 14 days. In kind it is functional, organism-based. Particulars: route it(Intratumoral), time 14.0 day.
Series [15] can be described thus: Toxicity in Balb/c mouse xenografted with mouse 4T1 cells assessed as lung lesions at 200 mg/kg administered topically over the tumor surface every two days for 14 days in the presence of cyanoacrylate by H&E staining based histopathological analysis. Format: organism-based. Particulars: in vivo, topical_or_ocular, 336 h, route top, time 14 day.
Series [16] in a line: Drug metabolism in Balb/c mouse liver implanted with mouse 4T1 cells assessed as dechlorination of parent compound causing metabolite formation by LC-MS analysis. Format: ADME, tissue-based.
The nature of series [17]: Drug metabolism in Balb/c mouse spleen implanted with mouse 4T1 cells assessed as dechlorination of parent compound causing metabolite formation by LC-MS analysis. In kind it is ADME, tissue-based.
Series [18] in a line: Drug metabolism in Balb/c mouse liver implanted with mouse 4T1 cells assessed as 2-methyl hydroxylation of parent compound causing metabolite formation by LC-MS analysis. In kind it is ADME, tissue-based.

This is an account of results in ChEMBL document CHEMBL5137015, “Design, synthesis, and evaluation of a novel series of mono-indolylbenzoquinones derivatives for the potential treatment of breast cancer” (Eur J Med Chem, 2022).

Active and inactive are the calls of the source. The calls are words filed in the database; no cut-off is given here.

Take `Cc1[nH]c2ccccc2c1C1=C(Cl)C(=O)C(Cl)=C(N2CCOCC2)C1=O`: the Activity in the series with MDA-MB-231 [1] was 55.05%; in series [10], “Non-Toxic”; in series [11], “Non-Toxic”; in series [12], “Non-Toxic”; in [13], “Non-Toxic”; in [15] it was “Non-Toxic”. Also, the outcome in the series on MDA-MB-231 [2], with MDA-MB-231 [3], in the series on MDA-MB-231 [4], in the series with MDA-MB-231 [5], in the series with MDA-MB-231 [6] and with MDA-MB-231 [7] was Active. The result with 4T1 [14] was Active. Further, the Ratio in series [8] was found to be 1. Also, the T/C in the series with 4T1 [9] amounted to 42%. Besides, the Drug metabolism result in series [16], in series [17] and in [18] was “Metabolite_Detected” each time.
